This experiment has as its target T1, human M4 muscarinic acetylcholine receptor (Homo sapiens, UniProt P08173).
T1 construct: expressed in transfected cells; host or cells: CHO-K1
T1 sequence (P08173 1-479): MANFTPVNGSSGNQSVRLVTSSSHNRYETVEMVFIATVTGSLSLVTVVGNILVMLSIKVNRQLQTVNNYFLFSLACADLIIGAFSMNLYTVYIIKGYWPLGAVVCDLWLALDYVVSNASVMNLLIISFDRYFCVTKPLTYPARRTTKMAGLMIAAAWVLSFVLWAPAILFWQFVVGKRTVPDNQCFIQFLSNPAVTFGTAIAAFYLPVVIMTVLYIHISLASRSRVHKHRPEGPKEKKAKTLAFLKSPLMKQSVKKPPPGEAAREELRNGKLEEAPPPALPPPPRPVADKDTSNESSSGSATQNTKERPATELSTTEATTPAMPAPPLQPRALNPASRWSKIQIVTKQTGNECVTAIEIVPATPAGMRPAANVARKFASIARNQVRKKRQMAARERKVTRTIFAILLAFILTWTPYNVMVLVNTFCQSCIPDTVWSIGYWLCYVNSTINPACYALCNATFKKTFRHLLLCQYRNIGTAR
Put plainly: human FLIPR-based M4 PAM assay (Ca2+ mobilization, CHO-K1 cells with human M4 receptor and Gαqi5). The class given is cell-based. The note with it: acetylcholine at 20% of maximum response, read-out: M4 PAM IP. The procedure, abridged: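 CHO-K1 cells stably expressing human M4 and chimeric Gαqi5 were dye-loaded ~1 h at 37 °C and read for Ca2+ fluorescence. Compound followed by acetylcholine at an EC20 (sometimes an EC70 third addition); inflection point from a 4-parameter logistic fit.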
For orientation: Calcium flux is commonly read through the fluorescence of an indicator in the cells.
Consider `Cc1cc2c(nc1N1CCC(Oc3ccc(CO)nc3)CC1)CNC2=O` [Example 155, 2-(4-((6-(hydroxymethyl)pyridin-3-yl)oxy)piperidin-1-yl)-3-methyl-6,7-dihydro-5H-pyrrolo[3,4-b]pyridin-5-one], for which the EC50 was 0.117 µM.
Under `Cc1cc2c(nc1N1CCC(Oc3cnc4c(c3)COCC4)CC1)CNC2=O` [Example 52, 2-(4-((7,8-dihydro-5H-pyrano[4,3-b]pyridin-3-yl)oxy)piperidin-1-yl)-3-methyl-6,7-dihydro-5H-pyrrolo[3,4-b]pyridin-5-one] stands 0.238 µM; under `Cc1cc2c(nc1N1CCC(Oc3ccncc3)CC1)CNC2=O` [Example 77, 3-methyl-2-(4-(pyridin-4-yloxy)piperidin-1-yl)-6,7-dihydro-5H-pyrrolo[3,4-b]pyridin-5-one], 0.214 µM.
In the case of `Cc1cc2c(nc1N1CCC(Oc3ccc4cccnc4c3)CC1)CNC2=O` [Example 92, 3-methyl-2-(4-(quinolin-7-yloxy)piperidin-1-yl)-6,7-dihydro-5H-pyrrolo[3,4-b]pyridin-5-one] it was 0.461 µM; in that of `Cc1cc2c(nc1N1CCC(OCc3ncco3)CC1)CNC2=O` [Example 183, 3-methyl-2-(4-(oxazol-2-ylmethoxy)piperidin-1-yl)-6,7-dihydro-5H-pyrrolo[3,4-b]pyridin-5-one], 4.78 µM; in that of `COc1ccc(OC2CCN(c3nc4c(cc3C)C(=O)N(C)C4(CO)CO)CC2)cn1` [Example 274, 7,7-Bis(hydroxymethyl)-2-(4-((6-methoxpyridin-3-yl)oxy)piperidin-1-yl)-3,6-dimethyl-6,7-dihydro-5H-pyrrolo[3,4-b]pyridin-5-one], 1.16 µM.
In the case of `Cc1cc2c(nc1N1CCC(Oc3ccc4c(c3)CCOC4=O)CC1)CNC2=O` [Example 121, 3-methyl-2-(4-((1-oxoisochroman-6-yl)oxy)piperidin-1-yl)-6,7-dihydro-5H-pyrrolo[3,4-b]pyridin-5-one] it was 1.92 µM; in that of `Cc1cc2c(nc1N1CCC(Oc3cccc(C#N)c3)CC1)[C@H](CO)N(C)C2=O` [Example 346, (R)-3-((1-(7-(hydroxymethyl)-3,6-dimethyl-5-oxo-6,7-dihydro-5H-pyrrolo[3,4-b]pyridin-2-yl)piperidin-4-yl)oxy)benzonitrile], 3.08 µM; in that of `COc1ccc(OC2CCN(c3nc4c(cc3C)C(=O)N[C@@H]4CO)CC2)cn1` (single isomer, unassigned) [Example 271B], 0.038 µM.
As for `Cc1cc2c(nc1N1CC[C@@H](Oc3cccc(C#N)c3)[C@@H](F)C1)CNC2=O` (relative stereo) [Example 7, 3-((cis-3-fluoro-1-(3-methyl-5-oxo-6,7-dihydro-5H-pyrrolo[3,4-b]pyridin-2-yl)piperidin-4-yl)oxy)benzonitrile], the EC50 worked out at 0.03 µM.
With `CO[C@H]1Cc2ccc(OC3CCN(c4nc5c(c(C)c4C)C(=O)N(CCO)C5)CC3)cc2C1` [Example 267D, (S)-6-(2-hydroxyethyl)-2-(4-((2-methoxy-2,3-dihydro-1H-inden-5-yl)oxy)piperidin-1-yl)-3,4-dimethyl-6,7-dihydro-5H-pyrrolo[3,4-b]pyridin-5-one], the EC50 turned out to be 0.087 µM.
In the case of `CCOC1CCN(c2nc3c(cc2C)C(=O)NC3)CC1` [Example 55, 2-(4-ethoxypiperidin-1-yl)-3-methyl-6,7-dihydro-5H-pyrrolo[3,4-b]pyridin-5-one] it was 1.12 µM.
For the compound `Cc1cc2c(nc1N1CCC(Oc3ccc4ncnn4c3)CC1)CNC2=O` [Example 197A, 2-(4-([1,2,4]triazolo[1,5-a]pyridin-6-yloxy)piperidin-1-yl)-3-methyl-6,7-dihydro-5H-pyrrolo[3,4-b]pyridin-5-one], the EC50 worked out at 0.285 µM.
In the case of `Cc1cc2c(nc1N1CCC(Oc3ccc(C(F)(F)F)nc3)CC1)CNC2=O` [Example 88, 3-methyl-2-(4-((6-(trifluoromethyl)pyridin-3-yl)oxy)piperidin-1-yl)-6,7-dihydro-5H-pyrrolo[3,4-b]pyridin-5-one] it was 0.381 µM; in that of `Cc1cc2c(nc1N1CCC(Oc3ccc4c(c3)CS(=O)(=O)C4)CC1)CNC2=O` [Example 208A, 2-(4-((2,2-dioxido-1,3-dihydrobenzo[c]thio-phen-5-yl)oxy)piperidin-1-yl)-3-methyl-6,7-dihydro-5H-pyrrolo[3,4-b]pyridin-5-one], 0.123 µM; in that of `COc1ccc(OC2CCN(c3nc4c(cc3C=O)C(=O)NC4)CC2)cn1` [Example 306, 2-(4-((6-Methoxypyridin-3-yl)oxy)piperidin-1-yl)-5-oxo-6,7-dihydro-5H-pyrrolo[3,4-b]pyridine-3-carbaldehyde], 0.32 µM.
In the case of `Cc1cc2c(nc1N1CCC(Oc3ccc(F)cc3)CC1)[C@@H](CO)N(C)C2=O` [Example 279, (S)-2-(4-(4-fluorophenoxy)piperidin-1-yl)-7-(hydroxymethyl)-3,6-dimethyl-6,7-dihydro-5H-pyrrolo[3,4-b]pyridin-5-one] it was 0.03 µM; in that of `Cc1cc2c(nc1N1CCC(OCC(F)(F)F)CC1)CNC2=O` [Example 172A, 3-methyl-2-(4-(2,2,2-trifluoroethoxy)piperidin-1-yl)-6,7-dihydro-5H-pyrrolo[3,4-b]pyridin-5-one], 0.905 µM; in that of `Cc1cc2c(nc1N1CC[C@@H](Oc3ccccc3)[C@@H](F)C1)CN(CCO)C2=O` [Example 237, 2-((3S,4R)-3-fluoro-4-phenoxypiperidin-1-yl)-6-(2-hydroxyethyl)-3-methyl-6,7-dihydro-5H-pyrrolo[3,4-b]pyridin-5-one], 0.068 µM.
In the case of `COC(=O)c1ccc(OC2CCN(c3nc4c(cc3C)C(=O)NC4)CC2)cn1` [Example 87, methyl 5-((1-(3-methyl-5-oxo-6,7-dihydro-5H-pyrrolo[3,4-b]pyridin-2-yl)piperidin-4-yl)oxy)picolinate] it was 1 µM; in that of `Cc1cc2c(nc1N1CCC(OCC3(CO)CC3)CC1)CNC2=O` [Example 312, 2-(4-((1-(hydroxymethyl)cyclopropyl)methoxy)piperidin-1-yl)-3-methyl-6,7-dihydro-5H-pyrrolo[3,4-b]pyridin-5-one], 0.651 µM; in that of `Cc1cc2c(nc1N1[C@@H]3CC[C@H]1C[C@H](Oc1cccc(C#N)c1)C3)CNC2=O` [Example 96, 3-((exo-8-(3-methyl-5-oxo-6,7-dihydro-5H-pyrrolo[3,4-b]pyridin-2-yl)-8-azabicyclo[3.2.1]octan-3-yl)oxy)benzonitrile], 1.43 µM.
Turning to `Cc1cc2c(nc1N1CCC(Oc3ccc(OC(C)C)nc3)CC1)CNC2=O` [Example 62, 2-(4-((6-isopropoxypyridin-3-yl)oxy)piperidin-1-yl)-3-methyl-6,7-dihydro-5H-pyrrolo[3,4-b]pyridin-5-one], the EC50 was 0.055 µM.
As to `Cc1cc2c(nc1N1CCC(Oc3ccc4c(c3)C(=O)CO4)CC1)CNC2=O` [Example 139A, 3-methyl-2-(4-((3-oxo-2,3-dihydrobenzofuran-5-yl)oxy)piperidin-1-yl)-6,7-dihydro-5H-pyrrolo[3,4-b]pyridin-5-one], the EC50 was determined as 0.628 µM.
In the case of `Cc1cc2c(nc1N1CCC(Oc3ccc4[nH]ccc4c3)CC1)CNC2=O` [Example 26, 2-(4-((1H-indol-5-yl)oxy)piperidin-1-yl)-3-methyl-6,7-dihydro-5H-pyrrolo[3,4-b]pyridin-5-one] it was 0.028 µM; in that of `Cc1cc2c(nc1N1CCC(Oc3cccc(S(C)(=O)=O)c3)CC1)CNC2=O` [Example 47A, 3-methyl-2-(4-(3-(methylsulfonyl)phenoxy)piperidin-1-yl)-6,7-dihydro-5H-pyrrolo[3,4-b]pyridin-5-one], 0.287 µM; in that of `COc1ccc(OC2CCN(c3nc4c(cc3C)C(=O)NC4(C)C)CC2)cn1` [Example 288, 2-(4-((6-Methoxypyridin-3-yl)ox)piperidin-1-yl)-3,7,7-trimethyl-6,7-dihydro-5H-pyrrolo[3,4-b]pyridin-5-one], 1.79 µM.
In the case of `COc1ccc(O[C@@H]2CCN(c3nc4c(cc3C)C(=O)NC4)C[C@H]2F)cn1` [Example 30, 2-((3R,4R)-3-fluoro-4-((6-methoxypyridin-3-yl)oxy)piperidin-1-yl)-3-methyl-6,7-dihydro-5H-pyrrolo[3,4-b]pyridin-5-one] it was 0.025 µM.
In the case of `Cc1cc2c(nc1N1CCC(OCC3(C(F)(F)F)CC3)CC1)CNC2=O` [Example 189, 3-methyl-2-(4-((1-(trifluoromethyl)cyclo-propyl)methoxy)piperidin-1-yl)-6,7-dihydro-5H-pyrrolo[3,4-b]pyridin-5-one] it was 0.265 µM.
As to `Cc1c(N2CCC(Oc3ccc(F)cc3)CC2)nc2c(c1C)C(=O)N(C)[C@H]2CO` [Example 354, (R)-2-(4-(4-fluorophenoxy)piperidin-1-yl)-7-(hydroxymethyl)-3,4,6-trimethyl-6,7-dihydro-5H-pyrrolo[3,4-b]pyridin-5-one], the EC50 was determined as 1.47 µM.
Under `Cc1cc2c(nc1N1CCC(Oc3ccc4c(c3)C[S+]([O-])C4)CC1)CNC2=O` (stereo not shown) [Example 167A, 3-methyl-2-(4-((2-oxido-1,3-dihydrobenzo[c]thio-phen-5-yl)oxy)piperidin-1-yl)-6,7-dihydro-5H-pyrrolo[3,4-b]pyridin-5-one] stands 0.188 µM.

Values taken from patent US10329289B2, “6,7-dihydro-5H-pyrrolo[3,4-B]pyridin-5-one allosteric modulators of the M4 muscarinic acetylcholine receptor” (Merck Sharp & Dohme Corp., priority 2015, dated 2019).
